Reference: ChEMBL document CHEMBL1136090, “Discovery of a potent and selective series of pyrazole bacterial methionyl-tRNA synthetase inhibitors” (Bioorg Med Chem Lett, 2003)

Assays:
[1] = system: Staphylococcus aureus subsp. aureus MW2; assay: Selectivity ratio for inhibition of human Methionyl-tRNA synthetase to that of Staphylococcus aureus Methionyl-tRNA synthetase.
[2] = molecular target: T1, Methionine--tRNA ligase, cytoplasmic (Homo sapiens, UniProt P56192); assay: Inhibitory activity against human methionyl-tRNA synthetase (hMetRS).
T1 sequence (P56192 whole entry): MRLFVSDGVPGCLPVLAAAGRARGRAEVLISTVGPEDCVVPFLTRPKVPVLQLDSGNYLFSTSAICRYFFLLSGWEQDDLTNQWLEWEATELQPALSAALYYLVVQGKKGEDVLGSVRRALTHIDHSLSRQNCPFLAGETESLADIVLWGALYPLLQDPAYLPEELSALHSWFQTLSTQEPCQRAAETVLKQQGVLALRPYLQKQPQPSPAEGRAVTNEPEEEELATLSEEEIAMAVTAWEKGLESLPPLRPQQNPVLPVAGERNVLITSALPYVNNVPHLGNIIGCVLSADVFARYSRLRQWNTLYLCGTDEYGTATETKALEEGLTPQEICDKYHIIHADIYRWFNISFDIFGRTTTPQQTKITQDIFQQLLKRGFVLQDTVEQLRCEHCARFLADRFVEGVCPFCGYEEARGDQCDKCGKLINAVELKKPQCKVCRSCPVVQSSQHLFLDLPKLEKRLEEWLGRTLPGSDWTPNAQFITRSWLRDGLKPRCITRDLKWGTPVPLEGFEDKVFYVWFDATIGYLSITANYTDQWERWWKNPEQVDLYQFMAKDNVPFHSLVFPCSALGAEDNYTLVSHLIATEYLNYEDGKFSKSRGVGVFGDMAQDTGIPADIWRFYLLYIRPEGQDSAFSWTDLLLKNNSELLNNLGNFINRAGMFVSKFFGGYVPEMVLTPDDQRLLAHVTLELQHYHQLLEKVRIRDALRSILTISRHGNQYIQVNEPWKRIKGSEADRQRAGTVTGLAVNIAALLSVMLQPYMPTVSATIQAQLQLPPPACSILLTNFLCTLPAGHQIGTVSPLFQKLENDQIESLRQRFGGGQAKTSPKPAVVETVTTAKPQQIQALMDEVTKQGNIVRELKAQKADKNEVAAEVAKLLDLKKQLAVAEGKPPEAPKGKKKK

Compound | Ratio [1] | IC50 [2] [µM]
O=C(O)Cn1nc(C(=O)O)cc1-c1ccc(-c2ccc(Cl)cc2Cl)cc1 | 29 | 100
O=C(O)c1cc(-c2ccc(-c3ccc(F)cc3)cc2)n(-c2ccc(Cl)cc2Cl)n1 | 1 | 41.3
COc1ccc(-n2nc(C(=O)O)cc2-c2ccc(-c3ccc(Cl)cc3Cl)cc2)cc1 | > 10 | > 100
O=C(O)c1cc(-c2ccc(-c3ccc(Cl)cc3Cl)cc2)n(Cc2ccncc2)n1 | 52 | 26.2
O=C(O)c1cc(-c2ccc(-c3ccccc3)cc2)n(-c2ccc(Cl)cc2Cl)n1 | 1 | 44.3
O=C(O)c1cc(-c2ccc(-c3ccc(Cl)cc3Cl)cc2)n(CCO)n1 | > 22 | > 100
O=C(O)c1cc(-c2ccc(-c3ccc(F)c(Cl)c3)cc2)n(-c2ccc(Cl)cc2Cl)n1 | 1 | 20.9
O=C(O)c1cc(-c2ccc(-c3ccc(C(F)(F)F)cc3)cc2)n(-c2ccc(Cl)cc2Cl)n1 | 1 | 33.5
CCn1nc(C(=O)O)cc1-c1ccc(-c2ccc(Cl)cc2Cl)cc1 | 45 | 46.4
O=C(O)c1cc(-c2ccc(-c3ccc(Cl)cc3Cl)cc2)nn1Cc1ccccn1 | 8 | 22.3
O=C(O)c1cc(-c2ccc(-c3ccc(Cl)cc3Cl)cc2)n(-c2ccccn2)n1 | > 159 | > 100
O=C(O)c1cc(-c2ccc(-c3ccc(Cl)cc3Cl)cc2)n(-c2cccnc2)n1 | 157 | 47
O=C(NCc1nn[nH]n1)c1cc(-c2ccc(-c3ccc(Cl)cc3Cl)cc2)n(-c2cccnc2)n1 | 106 | 13.8
O=C(O)c1cc(-c2ccc(-c3ccc(Cl)cc3Cl)cc2)n(Cc2cccnc2)n1 | > 152 | > 100
NC(=O)c1cc(-c2ccc(-c3ccc(Cl)cc3Cl)cc2)n(-c2ccccn2)n1 | > 34 | > 100
O=C(O)c1cccc(-c2ccc(-c3cc(C(=O)O)nn3-c3ccc(Cl)cc3Cl)cc2)c1 | 1 | 40.9
O=C(O)c1cc(-c2ccc(-c3ccc(Cl)cc3Cl)cc2)n(-c2ccc(Cl)cc2Cl)n1 | 2 | 11.9
Clc1ccc(-c2ccc(-c3cc(-c4nnn[nH]4)nn3-c3cccnc3)cc2)c(Cl)c1 | 82 | 10.6
